According to patent US20240197634A1, “PHARMACEUTICAL COMPOSITION FOR PREVENTING OR TREATING VIRUS INFECTIONS, COMPRISING POLYMER NANODISCS” (priority 2021, published 2024):

System: influenza virus
Assay type: cell-based

Substance: Heparin
- viral activity after 1/100 dilution (virucidal activity): recovery in viral activity
